Experimental data reported in US10925858B2, “S-nitrosoglutathione (GSNO) and GSNO reductase inhibitors for use in therapy” (MUSC FOUNDATION FOR RESEARCH DEVELOPMENT, priority 2017, dated 2021).

Legend:
3-nitrotyrosine = assay: Western analysis of 3-nitrotyrosine in rat brains with TBI; type: in vivo, Sprague Dawley rats; conditions: 24 hr after TBI, traumatic penumbra; GSNO 0.05 mg/kg i.v. or FeTPPS 3 mg/kg i.v.
Procedure: Western immunoblot analysis was performed by standard method using 50 μg of cell lysates. Following the SDS-PAGE electrophoresis, proteins were transferred from the gel onto the Polyvinylidene fluoride membrane (GE Healthcare Life Sciences, Marlborough, Mass.). Membranes were blocked with non-fat dry milk (Santa Cruz Biotechnology) or I-Block™ (ThermoFisher Scientific, Waltham, Mass.) for detection of phospho-proteins and incubated with primary antibodies, such as MBP (Santa Cruz Biotech Cat #: sc13914; RRID: AB_648798), phospho-(Ser^19) MLC (Abeam, Cat #: ab2480; RRID: AB_303094), MLC (Abeam, Cat #: ab79935; RRID:AB_1952220), P-actin (Santa Cruz Biotechnology, Cat #: sc-47778; RRID:AB_2714189), phospho-eNOS (Ser^1177) (Cell Signaling, Cat #: 9571; RRID: AB_329837, Danvers, Mass.), eNOS (Cell Signaling, Cat #: 32027), RhoA (Santa Cruz Biotechnology; Cat #: sc418; RRID: AB_628218) or 3-nitrotyrosine (Abeam, Cat #: ab61392; RRID: AB_942087). […]
All animals used in this study received humane care in compliance with the Medical University of South Carolina's (MUSC) guidance and the National Research Council's criteria for humane care. […] The group size was determined by power analysis based on our previous data (Khan et al., 2016b; Khan et al., 2009). […]

BBB leakage = assay: Evan's blue extravasation assay (BBB leakage) in EAE mice; type: in vivo, C57BL/6J mice; conditions: GSNO 1 mg/kg/day or FeTPPS 30 mg/kg/day i.p.
Procedure: EAE was induced as described previously (Nath et al., 2009). Animal procedures were approved by the institutional animal care and use committee of MUSC (AR #1644). Briefly, female C57BL/6J mice of 8-12 weeks of age weighing 18-22 g (The Jackson Laboratory, Bar Harbor, Me., USA) were randomly divided into four groups: 1) EAE animals treated with vehicle (EAE; n=8), 2) EAE with GSNO (1 mg/kg body weight per day; i.p.) treatment (EAE+GSNO; n=12), 3) EAE with FeTPPS (30 mg/kg body weight per day; i.p.) treatment (EAE+FeTPPS; n=8), 4) control with vehicle (Ctrl; n=8). The group size was determined by power analysis based on our previous data (Nadi et al., 2009). Then, the mice were immunized subcutaneously in the flank regions with MOG35-55 peptide (MOG; 200 ug; Peptide International) emulsified (1:1) in 100 ul complete Freund's adjuvant (CFA) CHI day 0 and day 7. […] Clinical signs of EAE were scored in animal facility in a blinded fashion to experimenter between 2 and 4 pm daily by examiners blinded to experimental treatments using the following scale: 0=no clinical signs of disease; 1=limp tail or waddling gait with tail tonicity; 2=waddling gait with limp tail (ataxia); 2.5=ataxia with partial limb paralysis; 3=full paralysis of one limb; 3.5=full paralysis of one limb with partial paralysis of second limb; 4=full paralysis of two limbs; 4.5=moribund stage; 5=death. […]

lymphocytes in blood = assay: Total lymphocyte count in blood of normal mice (lymphopenic effect); type: in vivo, C57BL/6 mice; conditions: normal mice without EAE, 1 mg/kg/day for 19 days
Procedure: The bloods collected in EDTA blood collection tubes (BD Biosciences) were analyzed by an automated hematology analyzer for counting total lymphocytes. For counting of each subset of lymphocytes, 50 μl of blood was mixed with staining buffer (20 μl) containing fluorescence labelled antibodies and red-blood-cells were lysed with FACS lysing solution (BD Biosciences) prior to fluorescence flow-cytometric analysis. For staining of CD3+, CD4+, and CD8+ cells, allophycocvanin (APC)-labeled anti-mouse CD3 (eBioscience clone 17A2), Fluorescein isothiocyanate (FITC)-labeled anti-mouse CD4 (eBioscience clone RM4-5), APC-labeled anti-mouse CD8 (eBioscience clone 53-6.7) and appropriate isotype matched controls.

| Compound | brain levels of 3-nitrotyrosine (3-nitrotyrosine) | extravasation of Evan's blue dye into the CNS (BBB leakage) | numbers of total lymphocytes, CD3+ T cells, CD4+ T cells and CD8+ cells in blood (lymphocytes in blood) |
| --- | --- | --- | --- |
| Cl.O=S(=O)([O-])c1ccc(-c2c3nc(c(-c4ccc(S(=O)(=O)O)cc4)c4ccc([nH]4)c(-c4ccc(S(=O)(=O)O)cc4)c4nc(c(-c5ccc(S(=O)(=O)O)cc5)c5ccc2[nH]5)C=C4)C=C3)cc1.[Fe] [FeTPPS, 5,10,15,20-Tetrakis(4-sulfonatophenyl)porphyrinato Iron (III), Cl, reference compound] | reduced | significantly decreased |  |
| Cc1cc(C(N)=O)ccc1-n1c(CCC(=O)O)ccc1-c1ccc(-n2ccnc2)cc1 [N6022, reference compound] |  |  | did not affect |
| N[C@@H](CCC(=O)N[C@@H](CSN=O)C(=O)NCC(=O)O)C(=O)O [GSNO, S-nitrosoglutathione] | reduced | significantly decreased | no obvious effect |
